Laboratory results: patent US12648979B2, “Compositions comprising sulforaphane or a sulforaphane precursor and Moringa plant components” (Nutramax Laboratories, Inc., priority 2021, dated 2026)

Tests used:
[1] = test system: Epstein-Barr virus-early antigen; details: in vitro; cited from earlier work
[2] = test system: NAD(P)H:quinone oxidoreductase (NQO1); details: oral administration; cited from earlier work
[3] = test system: NAD(P)H:quinone oxidoreductase 1 (NQO1) gene expression; assay: NQO1 gene expression in RAW 264.7 macrophage cell line, quantitative RT-PCR (Examples 6, 7, 11); assay type: cell-based; details: 0.5 μM SFN; 24 hours
Method: In the study, the macrophage cell line RAW 264.7 was treated with dimethyl sulfoxide (DMSO) (vehicle control), sulforaphane (SFN), a maitake mushroom extract having about 20% beta-glucan content (Maitake), or the combination of sulforaphane and the maitake mushroom extract, for 24 hours. In particular, the cells were treated with one of the following: (i) DMSO (vehicle control), (ii) 0.5 μM SFN, (iii) 250 μg/mL Maitake, (iv) 500 μg/mL Maitake, (v) 750 μg/mL Maitake, (vi) 0.5 μM SFN and 250 μg/mL Maitake, (vii) 0.5 μM SFN and 500 μg/mL Maitake, and (viii) 0.5 μM SFN and 750 μg/mL Maitake. The gene expression of NQO-1 was analyzed via quantitative RT-PCR. The results, which are depicted in FIG. 2, show the following:
In the study, the macrophage cell line RAW 264.7 was treated with DMSO (vehicle control), sulforaphane (SFN), a shiitake mushroom extract having at least 20% alpha-glucan content (Shiitake), or the combination of sulforaphane and the shiitake mushroom extract, for 24 hours. […] The gene expression of NQO1 was analyzed via quantitative RT-PCR. […]
In the study, the macrophage cell line RAW 264.7 was treated with sulforaphane (SFN), Moringa plant components (MOR), or a combination of SFN and MOR, for 24 hours. […] The gene expression of NQO1 was analyzed via quantitative RT-PCR. […]

heme oxygenase-1 (HO-1) = details: oral administration; cited from earlier work
mammary tumors = details: rat, in vivo; cited from earlier work
[4] = test system: broccoli sprout-derived myrosinase; assay: Consumption of glucoraphanin by myrosinase as a function of ascorbic acid concentration (Example 3); assay type: biochemical; details: 600 μmoles/Liter ascorbic acid
Method: A […] Interaction Chromatographic (HILIC) method was developed, comprising the following conditions: • Column: Waters BEH Amide, 1.7-μm particle size; 2.1 mm×100 mm; • Mobile Phase: 20% 10 mM Ammonium Acetate, pH 5.0; 80% acetonitrile; • Separation mode: isocratic; • Column Temperature: 70° C.; • Flow Rate: 0.7 mL/min.
About 250 mg of broccoli seed extract containing about 12% (w/w) glucoraphanin were subjected to hydrolysis by a fixed concentration of broccoli sprout-derived myrosinase in the presence of variable concentration of ascorbic acid, ranging from 0 to 600 μmoles/Liter. The reaction mixtures were thermostated at 38° C.; aliquots were withdrawn every 15 minutes for 60 minutes, and concentration of glucoraphanin determined chromatographically. The rate of glucoraphanin consumption was interpreted as the rate its conversion to sulforaphane. Graphical representation of glucoraphanin content reduction as a function of increasing ascorbic acid concentration results in a series of linear plots; the slopes of the linear regression lines reflect the rate of glucoraphanin consumption, in pmoles/minute. It is apparent that in the presence of 600 μmoles/Liter concentration of ascorbic acid, the reaction rate increased 13-fold relative to that which proceeded in the absence of modulatory effects of ascorbic acid.

myrosinase [5] = assay: Equimolar conversion of glucoraphanin to sulforaphane by myrosinase, HPLC (Example 4); assay type: biochemical, broccoli; details: PART 2, broccoli seed extract 250 mg
Method: A two-part experiment was conducted to further elucidate the role of ascorbic acid in modulating myrosinase activity. All solutions were prepared in 20 mM Tris-buffered saline, at pH 7.5, previously identified as an optimal for myrosinase activity; each sample tube had 100 mg of freeze-dried broccoli powder accurately weighed in as a source of myrosinase. Experiment was conducted at 38° C. for 2 hours, with sample aliquots removed in 30-minute increments, and both glucoraphanin and sulforaphane content assessed by HPLC. […] A control sample contained no ascorbic acid, and the enzymatic conversion proceeded unassisted by a co-factor. PART 1. In the presence of the fixed concentration of ascorbic acid, 1 mmol/Liter, an increasing amount of broccoli seed extract (about 12% glucoraphanin, w/w) was added, ranging from 250 mg to 500 mg. PART 2. While keeping the amount of broccoli seed extract fixed at 250 mg, the concentration of ascorbic acid was varied from 0.4 mmol/Liter to 3.8 mmol/Liter.

myrosinase [6] = assay: Conversion of glucoraphanin to sulforaphane in Simulated Intestinal Fluid (Example 5); assay type: biochemical, broccoli; details: 38° C., ascorbic acid 0.25 to 1.00 mmol/Liter, FIG. 1
Method: Simulated Intestinal Fluid (SIF) powder, a commercially supplied concentrate closely approximating the human intestinal content in terms of composition, pH and ionic strength, was used. The experiment utilized a USP Dissolution Apparatus 2 (paddles), where into six dissolution vessels 500 mL of Simulated Intestinal Fluid was dispensed, along with 150 mg of freeze-dried broccoli sprout powder as a source of myrosinase. […] Aliquots were withdrawn every 15 minutes, and assayed for sulforaphane.

Question: For CCOC(=S)NCc1ccc(OC2OC(C)C(O)C(O)C2O)cc1 (centres unmarked) [niazimicin], which “inhibitory effects on Epstein-Barr virus-early antigen” value (from here on “inhibitory effects”) [1] is on record?
Answer: significant inhibitory effects

Question: Which results are given for C[S+]([O-])CCCCN=C=S (centres unmarked) [SFN, 1-isothiocyanato-4-methylsulfinylbutane]?
Answer: increase in NQO1 enzymatic activity in the mammary epithelium [2]: 3 fold; Fold increase in NQO-1 gene expression [3]: 12.96; elevated immunostaining of HO-1 in the mammary epithelium (heme oxygenase-1 (HO-1)): 4 fold; blocking the formation of mammary tumors (mammary tumors): effective in blocking the formation of mammary tumors

Question: With C[C@@H]1O[C@@H](Oc2ccc(CN=C=S)cc2)[C@H](O)[C@H](O)[C@H]1O [4(α-L-rhamnosyloxy)-benzyl isothiocyanate] as the molecule, how does the “inhibitory effects” value [1] read?
Answer: significant inhibitory effects

Question: For CCOC(=O)NCc1ccc(O[C@@H]2O[C@@H](C)[C@H](O)[C@@H](O)[C@H]2O)cc1 [O-Ethyl-4-(α-L-rhamnosyloxy)benzyl carbamate], which “inhibitory effects” value [1] is on record?
Answer: significant inhibitory effects

Question: With O=C1O[C@H]([C@@H](O)CO)C(O)=C1O [ascorbic acid] as the molecule, how does the “increase of reaction rate relative to absence of ascorbic acid” value [4] read?
Answer: 13 fold

Question: And the “ascorbic acid concentration up to which myrosinase-promoted conversion increases linearly, then levels off” value (myrosinase [5])?
Answer: about 2 mmol/L

Question: What about the “yield of sulforaphane versus ascorbic acid concentration” value (myrosinase [6]) of the same molecule?
Answer: direct correlation between larger yield of sulforaphane and higher concentrations of ascorbic acid

Question: With CCCCCCCCC=CCCCCCCCC(=O)OCC1OC(OC2CCC3(C)C(=CCC4C3CCC3(C)C(C(C)CCC(CC)C(C)C)CCC43)C2)C(O)C(O)C1O [3-O-(6′-O-oleoyl-β-D-glucopyranosyl)-β-sitosterol] as the molecule, how does the “inhibitory effects” value [1] read?
Answer: significant inhibitory effects
